Structures are written as SMILES. Activity calls are given as the source filed them.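 Rule for the calls: active = compounds whose calcium response changes with concentration, giving a dose-dependent curve as judged by the depositor; inactive = the rest, with no dose-dependent response.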

In general, EC50 refers to the concentration needed to bring the measured effect to its halfway point.

For the first assay, the target named is Muscarinic acetylcholine receptor M2 (Homo sapiens) (UniProt P08172). The experiment in a line: potentiation of ACh response at hM2 – CHO cells, Gqi5 chimera, calcium mobilization, selectivity assay for M4 PAM optimization, SAR follow-up (AID 623925). The note with it: ACh EC20 potentiation. Background: Calcium assays in cells follow changes in intracellular calcium, usually with a dye or a luminescent sensor.
Sequence of Muscarinic acetylcholine receptor M2 (Homo sapiens) (P08172 whole entry, looked up): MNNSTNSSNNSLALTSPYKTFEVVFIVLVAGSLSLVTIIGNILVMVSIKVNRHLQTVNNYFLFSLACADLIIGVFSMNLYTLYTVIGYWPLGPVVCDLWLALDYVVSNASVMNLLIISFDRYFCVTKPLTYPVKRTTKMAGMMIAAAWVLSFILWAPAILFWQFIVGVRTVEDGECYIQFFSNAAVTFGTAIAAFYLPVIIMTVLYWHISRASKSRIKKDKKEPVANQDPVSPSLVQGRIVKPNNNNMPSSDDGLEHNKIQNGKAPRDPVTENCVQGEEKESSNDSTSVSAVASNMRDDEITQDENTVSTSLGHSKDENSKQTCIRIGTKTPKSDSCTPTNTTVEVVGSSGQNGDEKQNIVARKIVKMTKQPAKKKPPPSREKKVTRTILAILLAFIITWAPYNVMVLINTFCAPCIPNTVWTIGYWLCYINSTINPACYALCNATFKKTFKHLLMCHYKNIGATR
With `Cc1nc2sc(C(=O)NCc3ccc4c(c3)OCO4)c(N)c2c(C)c1Cl`, the result was inactive.

Turning to `Cc1nc2sc(C(=O)NCc3ccccc3)c(N)c2c(C)c1Cl`, the result was inactive.

For `Cc1nc2sc(C(=O)NCc3cccnc3)c(N)c2c(C)c1Cl`, the result was inactive.

As for `Cc1nc2sc(C(=O)NC3CC3)c(N)c2c(C)c1Cl`, the concentration for a half-maximal effect (EC50) is 548 nM.

In the case of `Cc1nc2sc(C(=O)NCc3ccncc3)c(N)c2c(C)c1Cl`, the outcome was inactive.

The assay is the same for the next values; noted with them: ACh EC20 potentiation, at 30 µM (top of the series).
For `Cc1nc2sc(C(=O)NCc3nccs3)c(N)c2c(C)c1Cl`, the “% ACh max response” value was “inactive”.

In the case of `Cc1nc2sc(C(=O)NCCc3ccncc3)c(N)c2c(C)c1Cl`, the “% ACh max response” value was “inactive”.

Consider `COc1ccc(C)c2sc(NC(=O)c3ccncc3)nc12`, for which the “% ACh max response” value is “inactive”.

Consider `Cc1nc2sc(C(=O)NCc3ccncn3)c(N)c2c(C)c1Cl`, for which the “% ACh max response” value is “inactive”.

Regarding `Cc1nc2sc(C(=O)NCc3cccc(F)c3F)c(N)c2c(C)c1Cl`, the “% ACh max response” value is “inactive”.

The values above are taken from PubChem BioAssay AID623925 (Vanderbilt Specialized Chemistry Center, 2012).
